Test results reported in publication PMC12502323, “Discovery of small molecules with anthelmintic potential in the Medicines for Malaria Venture’s COVID and Global Health Priority Boxes using an infrared-based assay for Caenorhabditis elegans motility” (BMC Research Notes, 2025).
Like-named read-outs stand apart in the source and are kept apart here.

Legend:
[1] = test system: Caenorhabditis elegans; assay: Primary screen, infrared-based (WMicroTracker ONE) C. elegans L4 motility assay at 40 µM; assay type: cell-based, Caenorhabditis elegans (Bristol N2); conditions: primary screen at 40 µM; for C. elegans NOTES (HIT): hit if motility < 25%
Method: (§1) Methods to cultivate C. elegans (Bristol N2) and synchronize growth to the L4 stage were as described. WMicroTracker ONE (Phylumtech, Argentina) detects movement by measuring the scattering of infrared light beams that are projected into each well of a microtiter plate (two 880 nm beams/well in a 96w plate).
(§2) Synchronized C. elegans L4 were detached from agar and collected in M9 buffer. Worms were centrifuged for 1 min at 1,900 g and washed in S medium to decrease the concentration of E. coli OP50 that might interfere with infrared detection. Control and assay compounds (1 µL) in DMSO (Fisher Scientific, Cat# BP231-100) were spotted into each well of a clear, flat-bottomed 96-well polystyrene plate (Fisherbrand, Cat# FB012931). DMSO (1%) was used as the negative control. Approximately 70 L4 in 100 µL S medium were added per well. First pass screens employed 40 µM compound, and motility was measured every 20 min for 24 h in the WMicroTracker ONE reader in which the temperature was 25 ± 1 °C. Motility was normalized relative to the DMSO controls. Hits were defined as compounds that decreased motility to ≤ 25% of that in DMSO control worms.

[2] = test system: Caenorhabditis elegans; assay: Concentration response C. elegans L4 motility assay (WMicroTracker ONE), EC50; assay type: cell-based, Caenorhabditis elegans (Bristol N2); conditions: Caenorhabditis elegans, read-out: EC50 (motility)
Method: as §1, §2
For potent compounds, concentration response assays (nine concentrations: 0.005 µM to 40 or 100 µM) were conducted to measure the half-maximal effective concentration (EC50). Compounds were serially diluted in DMSO using 96-well, v-bottomed polypropylene dilution plates (ThermoFisher Scientific, Cat#: 249944) and 1 µL aliquots spotted into each well of the assay plates. Motility was measured as described above. Prism GraphPad, Version 8.0 (GraphPad Software, San Diego, CA) was used to calculate EC50 values using a non-linear sigmoidal four parameter logistic curve.

[3] = HEK293 cytotoxicity assay (resazurin); assay type: cell-based, Human; conditions: human
Method: Potent compounds were also evaluated for cytotoxicity against HEK293 cells. Cells were cultured at 37 °C and 5% in Dulbecco’s Modified Eagle Medium (DMEM; Gibco, Cat#: 11965-092) containing 10% heat-inactivated fetal bovine serum (FBS; Omega Scientific Inc., Cat#: FB02) and 1% penicillin-streptomycin (ThermoFisher Scientific, Cat#: 15140122), and then sub-cultured when 60–80% confluent. Cells were detached with 0.05% trypsin/EDTA (ThermoFisher Scientific, Cat#: 25300054) and centrifuged for 5 min at 1,900 g.
Screens were performed over 11 compound concentrations (0.00007–40 µM) that had been prepared in DMSO. Aliquots (1 µL) were spotted into each well of a clear-bottomed, 96-well, polystyrene assay plate (Fisher Scientific, Cat#: FB012931). Approximately 20,000 HEK293 cells in 99 µL of the above supplemented DMEM were then added to each well. After 46 h at 37 °C and 5% CO2, 20 µL 0.5 mM resazurin (ThermoFisher Scientific, Cat#: B21187.03) were added and the incubation continued for 2 h at 37 °C [27]. Fluorescence was measured in a 2104 EnVision Multilabel Plate Reader (PerkinElmer) at 560 and 590 nm excitation and emission wavelengths, respectively. Raw data were exported from the EnVision Workstation software (version 1.13.3009.1401; PerkinElmer) into Prism GraphPad, and the half-maximal cytotoxic concentration (CC50) values were calculated using a non-linear regression curve.

[4] = C. elegans L4, WMicroTracker ONE

Compound	C. elegans Mean motility vs. DMSO control (%) ([1]; C. elegans L4)	C. elegans Mean motility vs. DMSO control (%) [1, 4]	further results
O[C@@H](c1cc(C(F)(F)F)nc2c(C(F)(F)F)cccc12)[C@H]1CCCCN1 [MMV000014]	88.32%		
O[C@@H](c1cc(C(F)(F)F)nc2c(C(F)(F)F)cccc12)[C@H]1CCCCN1 [MMV000016]		108.37%	
NS(=O)(=O)c1cc2c(cc1Cl)N=CNS2(=O)=O [MMV001901]		96.35%	
CCCCc1oc2ccccc2c1C(=O)c1cc(I)c(OCCN(CC)CC)c(I)c1 [MMV001992]	67.16%		
Cc1onc(-c2ccccc2)c1-c1ccc(S(N)(=O)=O)cc1 [MMV002260]	95.37%		
Cc1ncc([N+](=O)[O-])n1CC(C)O (centres unmarked) [MMV002287]	78.09%		
OC(Cn1cncn1)(Cn1cncn1)c1ccc(F)cc1F [MMV002337]		103.8%	
COc1ccc(Cc2nccc3cc(OC)c(OC)cc23)cc1OC [MMV002798]		96.9%	
COc1cc2c3cc1Oc1c(OC)c(OC)cc4c1C(Cc1ccc(O)c(c1)Oc1ccc(cc1)CC3N(C)CC2)N(C)CC4.Cl (centres unmarked) [MMV007474]	94.2%		
Cc1ccc(NC(=O)c2ccc(CN3CCN(C)CC3)cc2)cc1Nc1nccc(-c2cccnc2)n1 [MMV009948]		98.37%	
CN1CCCC1CCO[C@](C)(c1ccccc1)c1ccc(Cl)cc1 (some centres unmarked) [MMV637229]		98.88%	
CCC(C)n1ncn(-c2ccc(N3CCN(c4ccc(OCC5COC(Cn6cncn6)(c6ccc(Cl)cc6Cl)O5)cc4)CC3)cc2)c1=O (centres unmarked) [MMV637528]		97.65%	
CC(=O)N1CCN(c2ccc(OC[C@@H]3CO[C@@](Cn4ccnc4)(c4ccc(Cl)cc4Cl)O3)cc2)CC1 [MMV637533]		113.2%	
CC(C)(C)NC(=O)[C@@H]1CN(Cc2cccnc2)CCN1C[C@@H](O)C[C@@H](Cc1ccccc1)C(=O)N[C@H]1c2ccccc2C[C@H]1O [MMV659198]		103.91%	
CO[C@@H](C(=O)N1Cc2[nH]nc(NC(=O)c3ccc(N4CCN(C)CC4)cc3)c2C1)c1ccccc1 [MMV676600]		100.25%	
CC[C@@H]([C@H](C)O)n1ncn(-c2ccc(N3CCN(c4ccc(OC[C@@H]5CO[C@@](Cn6cncn6)(c6ccc(F)cc6F)C5)cc4)CC3)cc2)c1=O [MMV688774]	86.8%		
CC(=O)Oc1ccccc1C(=O)Nc1ncc([N+](=O)[O-])s1 [MMV688991]		112.67%	
CC(C)C[C@H](NC(=O)[C@@H](NC(=O)c1cccc(-c2ccccc2)n1)[C@@H](C)O)B(O)O [MMV690548]		97.97%	
O=C(NC1CCCc2c1[nH]c1ccc(Cl)cc21)c1ccccn1 (centres unmarked) [MMV690621]	85.65%		
CNCc1[cH-]ccc1CNc1ccnc2cc(Cl)ccc12.[Fe+2].c1cc[cH-]c1 [MMV892669]		102.88%	
O=C(Nc1ncccc1O)c1ccc(N2CCOCC2)nc1 [MMV1103183]		99.33%	
Cn1cc(CN2CCc3c(c(C(=O)NCc4nccs4)nn3Cc3ccccc3)C2)c2ccccc21 [MMV1167451]	84.51%		

Compound	C. elegans Mean motility vs. DMSO control (%) ([1]; C. elegans L4)	C. elegans Mean motility vs. DMSO control (%) [1, 4]	further results
CCCOc1ccc(C(F)(F)F)cc1NC(=O)c1nc2nccc(C)n2n1 [MMV1262756]	25.74%		
O=C(Nc1ncccc1O)c1ccc(Cn2cccn2)cc1 [MMV1266067]	85.15%		
Cn1ccnc1SCC(=O)Nc1ccc(C(=O)Nc2ncccc2O)cc1 [MMV1267536]	64.36%		
O=C(Nc1ncccc1O)c1ccc(S(=O)(=O)NCCc2cccs2)cc1 [MMV1435700]	75.25%		
C[C@H](Cn1cnc2c(N)ncnc21)OCP(=O)(O)O [MMV1580478]	95.45%		
CC(C)Oc1ccc(-c2nc(-c3cccc4c3CC[C@@H]4NCCO)no2)cc1C#N [MMV1580492]	83.52%		
CC(C)(C)NC(=O)N[C@H](C(=O)N1C[C@H]2[C@@H]([C@H]1C(=O)NC(CC1CCC1)C(=O)C(N)=O)C2(C)C)C(C)(C)C (some centres unmarked) [MMV1580497]	86.33%		
C[C@@H](c1nc(-c2ccc(C#N)cc2)cs1)[C@](O)(Cn1cncn1)c1ccc(F)cc1F [MMV1634362]	84.55%		
CCC1=C(c2ccc(C)cc2)S(=O)(=O)N=C1N1CCC(C(=O)NCCN2CCCC[C@@H]2C)CC1 [MMV1704710]		104.04%	
Oc1ccccc1CCN[C@H]1CCc2ccc(F)cc21 [MMV1726212]	87.88%		
CCn1cnc2c(N3CCC[C@H](c4ccncc4)C3)ncnc21 [MMV1752548]	78.79%		
O=C(Nc1cnc2ccccc2c1)c1ccccc1C(=O)c1ccc(F)cc1 [MMV1760745]	93.6%		
c1ccc(-c2ccnc(C3CCN(CC45CNCC4C5)CC3)n2)cc1 (centres unmarked) [MMV1797658]	81.14%		
O=C(NC1CCN(CCOc2ccc(Cl)cc2)CC1)c1c[nH]c2ccncc2c1=O [MMV1798946]		99.33%	
CC[C@@H](C(=O)[C@@H](C)[C@@H](O)[C@H](C)[C@@H]1O[C@@H]([C@@H](CC)C(=O)O)CC[C@@H]1C)[C@H]1O[C@]2(C=C[C@@H](O)[C@]3(CC[C@@](C)([C@H]4CC[C@](O)(CC)[C@H](C)O4)O3)O2)[C@H](C)C[C@@H]1C [MMV1804312]		96.95%	
CCOCn1c(-c2ccc(Cl)cc2)c(C#N)c(Br)c1C(F)(F)F [chlorfenapyr]	0.26%		C. elegans NOTES (HIT) [1]: HIT; EC50 ([2]; C. elegans L4, after 12 h): 1.65 ± 0.449 µM; CC50 at 48 h ([3]; HEK293 cell viability after 48 h, read-out: CC50): 20.9 ± 7.34 µM
CO[C@H]1C[C@H](O[C@H]2[C@H](C)O[C@@H](O[C@@H]3/C(C)=C/C[C@@H]4C[C@@H](C[C@]5(C=C[C@H](C)[C@@H](C6CCCCC6)O5)O4)OC(=O)[C@@H]4C=C(C)[C@@H](O)[C@H]5OC/C(=C\C=C\[C@@H]3C)[C@]54O)C[C@@H]2OC)O[C@@H](C)[C@@H]1O [doramectin, reference compound]	6.74%		C. elegans NOTES (HIT) [1]: HIT
CO/N=C1\C[C@]2(C[C@@H]3C[C@@H](C/C=C(\C)C[C@@H](C)/C=C/C=C4\CO[C@@H]5[C@H](O)C(C)=C[C@@H](C(=O)O3)[C@]45O)O2)O[C@H](/C(C)=C/C(C)C)[C@H]1C [moxidectin, reference compound]	0.28%		C. elegans NOTES (HIT) [1]: HIT; EC50 ([2]; 1 h): 0.128 ± 0.045 µM; CC50 at 48 h [3]: 13.3 ± 9.47 µM
abamectin [reference compound]	3.6%		C. elegans NOTES (HIT) [1]: HIT
eprinomectin [reference compound]	13.19%		C. elegans NOTES (HIT) [1]: HIT
milbemectin [reference compound]	1.69%		C. elegans NOTES (HIT) [1]: HIT
